In ChEMBL document CHEMBL1201862, “PubChem BioAssay data set” (2004):
Activity calls are given as the source filed them.

Key:
[1] = molecular target: Mitogen-activated protein kinase 10 (Homo sapiens, UniProt P53779); experiment: Dose response biochemical screening assay for inhibitors of c-Jun N-Terminal Kinase 3 (JNK3). [Related pubchem assays: 746 ]
[2] = M. tuberculosis H37Rv growth inhibitors, H37Rv strain (AID 1626); type: functional
Genome polyprotein = Genome polyprotein (Hepatitis C virus, UniProt Q2Q167); experiment: HCV core protein dimerization inhibitors, dose response, biochemical, TR-FRET (AID 2159); parameters: species or system Hepacivirus hominis;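 also: blocks dimerization of HCV core protein measured by TR-FRET between tagged core106 pairs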
[3] = molecular target: RNA-editing ligase 1, mitochondrial (Trypanosoma brucei brucei, UniProt P86926); experiment: TbREL1 ligase inhibitors, dose response, biochemical, fluorescence, Trypanosoma brucei (AID 1117295); type: functional
Kallikrein-7 = Kallikrein-7 (Homo sapiens, UniProt P49862); experiment: Fluorescence Intensity-based biochemical primary high throughput dose response assay to identify activators of kallikrein-7 (K7) zymogen.
[4] = HeLa 2N DNA content increase, dose response, cell-based, IC50 (AID 1117349); type: functional
[5] = HeLa 4N DNA content increase, dose response, cell-based, IC50 (AID 1117351); type: functional
[6] = molecular target: T1, Oxysterols receptor LXR-beta (Homo sapiens, UniProt P55055); type: functional, cell-based;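 also: Cell-based luminescence dose-response assay of agonist activity at LXR, run as a confirmatory counterscreen to a daf-12 agonist screen; HEK293 cells with Gal4-LXR fusion and GAL4-driven luciferase reporter; agonist potency from rising luciferase signal of a Gal4-LXR reporter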
T1 sequence (P55055 whole entry): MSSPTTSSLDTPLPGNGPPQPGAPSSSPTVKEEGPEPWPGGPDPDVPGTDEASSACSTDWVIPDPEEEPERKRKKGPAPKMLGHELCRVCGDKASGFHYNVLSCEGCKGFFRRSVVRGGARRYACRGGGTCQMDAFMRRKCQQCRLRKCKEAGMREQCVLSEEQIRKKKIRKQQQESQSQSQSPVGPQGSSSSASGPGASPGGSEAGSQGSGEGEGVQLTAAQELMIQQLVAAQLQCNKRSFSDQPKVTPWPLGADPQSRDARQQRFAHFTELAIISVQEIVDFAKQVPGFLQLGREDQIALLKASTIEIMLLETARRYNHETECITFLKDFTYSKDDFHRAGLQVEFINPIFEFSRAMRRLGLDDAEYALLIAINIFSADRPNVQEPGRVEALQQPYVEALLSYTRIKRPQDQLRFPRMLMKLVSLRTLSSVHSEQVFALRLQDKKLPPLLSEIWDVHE

Protein skinhead-1 = molecular target: T2, Protein skinhead-1 (Caenorhabditis elegans, UniProt P34707); type: functional
T2 sequence (P34707 whole entry): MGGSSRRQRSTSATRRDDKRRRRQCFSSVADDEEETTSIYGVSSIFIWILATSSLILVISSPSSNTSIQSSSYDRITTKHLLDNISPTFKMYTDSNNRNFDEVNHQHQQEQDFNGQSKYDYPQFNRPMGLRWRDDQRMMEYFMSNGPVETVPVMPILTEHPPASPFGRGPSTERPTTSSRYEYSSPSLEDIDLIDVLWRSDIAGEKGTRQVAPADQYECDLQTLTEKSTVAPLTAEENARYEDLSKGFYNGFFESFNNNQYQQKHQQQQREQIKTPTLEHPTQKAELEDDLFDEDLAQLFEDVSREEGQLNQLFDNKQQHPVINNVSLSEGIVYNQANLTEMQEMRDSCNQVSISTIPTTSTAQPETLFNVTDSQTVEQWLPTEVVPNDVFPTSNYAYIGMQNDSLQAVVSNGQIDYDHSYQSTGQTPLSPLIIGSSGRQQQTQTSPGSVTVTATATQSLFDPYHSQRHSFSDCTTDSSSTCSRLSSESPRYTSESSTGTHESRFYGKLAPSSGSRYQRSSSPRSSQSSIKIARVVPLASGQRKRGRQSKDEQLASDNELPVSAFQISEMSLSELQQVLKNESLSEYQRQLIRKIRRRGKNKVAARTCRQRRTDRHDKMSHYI

[7] = inhibitors of PGC1a acetylation in cells, dose response, cell-based, cherry-picked samples (AID 720514); type: functional;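 also: potency may reflect raised or lowered acetylation signal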

Sequence of Mitogen-activated protein kinase 10 (P53779 whole entry): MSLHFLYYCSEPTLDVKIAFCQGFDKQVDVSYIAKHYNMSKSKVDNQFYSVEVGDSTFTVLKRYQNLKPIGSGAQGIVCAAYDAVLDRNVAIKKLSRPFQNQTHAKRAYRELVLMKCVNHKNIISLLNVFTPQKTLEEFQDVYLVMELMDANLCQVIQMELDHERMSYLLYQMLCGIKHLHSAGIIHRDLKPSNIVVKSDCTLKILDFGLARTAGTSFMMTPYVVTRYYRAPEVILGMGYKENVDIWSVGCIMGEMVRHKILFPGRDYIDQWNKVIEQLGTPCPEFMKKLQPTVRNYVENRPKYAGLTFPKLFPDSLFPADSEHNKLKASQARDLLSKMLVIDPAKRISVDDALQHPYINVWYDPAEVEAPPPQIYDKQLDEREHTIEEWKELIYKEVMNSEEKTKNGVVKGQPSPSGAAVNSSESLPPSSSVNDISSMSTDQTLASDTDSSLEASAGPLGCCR
Sequence of Genome polyprotein (Q2Q167 whole entry): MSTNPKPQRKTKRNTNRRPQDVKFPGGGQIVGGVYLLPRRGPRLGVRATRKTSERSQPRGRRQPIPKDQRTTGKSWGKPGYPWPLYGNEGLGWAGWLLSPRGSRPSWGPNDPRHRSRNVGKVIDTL
Sequence of Kallikrein-7 (P49862 whole entry): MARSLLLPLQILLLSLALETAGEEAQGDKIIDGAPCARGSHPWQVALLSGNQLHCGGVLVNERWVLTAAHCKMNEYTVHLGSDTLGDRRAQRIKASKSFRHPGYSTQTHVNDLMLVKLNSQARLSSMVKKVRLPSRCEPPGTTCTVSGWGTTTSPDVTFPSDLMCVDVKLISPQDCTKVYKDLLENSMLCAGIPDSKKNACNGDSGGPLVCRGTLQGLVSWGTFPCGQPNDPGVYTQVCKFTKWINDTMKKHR
Sequence of RNA-editing ligase 1, mitochondrial (P86926 whole entry): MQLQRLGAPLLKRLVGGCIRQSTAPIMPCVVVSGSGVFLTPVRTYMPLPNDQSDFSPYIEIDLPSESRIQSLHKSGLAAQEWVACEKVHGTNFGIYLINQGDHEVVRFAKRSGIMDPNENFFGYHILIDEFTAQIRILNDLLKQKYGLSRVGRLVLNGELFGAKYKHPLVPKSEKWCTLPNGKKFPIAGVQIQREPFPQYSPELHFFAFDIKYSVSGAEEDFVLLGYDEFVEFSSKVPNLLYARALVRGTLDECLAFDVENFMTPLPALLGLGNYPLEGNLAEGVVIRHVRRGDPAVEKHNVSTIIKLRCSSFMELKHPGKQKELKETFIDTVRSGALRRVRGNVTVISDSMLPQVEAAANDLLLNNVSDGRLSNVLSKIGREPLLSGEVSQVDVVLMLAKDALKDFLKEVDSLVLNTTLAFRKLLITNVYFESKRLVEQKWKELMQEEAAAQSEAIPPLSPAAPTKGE

Q: For `CCCCC(=O)Nc1ncc(Br)s1`, which IC50 [1] is on record?
A: 54.9 µM (not active)

Q: Which IC50 [2] does the source give for `CCOc1ccc(N2C(=O)c3ccc(C(=O)OCC(=O)N(CC)C4CCS(=O)(=O)C4)cc3C2=O)cc1` (configuration not stated) here?
A: > 100 µM (active)

Q: Which IC50 (Genome polyprotein) does the source give for `Sc1nncn2c1cc1oc3ccccc3c12` here?
A: > 49.8 µM (not active)

Q: With `COc1cccc(CN(C)C(=O)[C@H]2O[C@@H](n3cnc4c(=O)[nH]c(N)nc43)[C@H](O)[C@@H]2O)c1` as the compound, how does the IC50 [3] read?
A: > 96.6 µM (inactive)

Q: For `COc1cccc(NC(=O)CCCn2c(=O)[nH]c3ccccc3c2=O)c1`, which IC50 [1] is on record?
A: 48.1 µM (not active)

Q: With `CCC(NC(=O)Cc1c(C)c2c(cc(C)c3c(C)c(C)oc32)oc1=O)C(=O)O` (configuration not stated) as the compound, how does the EC50 (Kallikrein-7) read?
A: > 69.5 µM (inactive)

Q: Which IC50 [4] does the source give for `COC(=O)c1nc(Cl)c(Cl)nc1N` here?
A: 0.334 µM (active)

Q: And the IC50 [5]?
A: 0.511 µM (active)

Q: For `O=c1c2ccccc2cnn1-c1ccc(Cl)cc1`, which EC50 [6] is on record?
A: > 67.5 µM (inactive)

Q: And the EC50 (cells)?
A: > 67.5 µM (inactive)

Q: For `O=C(C=Cc1ccccc1)CC(c1ccccc1)N1CCOCC1` (configuration not stated), which IC50 (Protein skinhead-1) is on record?
A: 10.9 µM (active)

Q: And the AC50 [7]?
A: 10.7 µM (active)
